Patent publication US5294718A, “Piperidino-3,4-dihydrocarbostyril compounds” (Kissei Pharmaceutical Co., Ltd., priority 1993, dated 1994)

Tested on: Adenosine Diphosphate (ADP)-Induced Platelet Aggregation
Test: Inhibitory Effect on Adenosine Diphosphate (ADP)-Induced Platelet Aggregation (turbidimetric method, platelet rich plasma)
Format: cell-based, Japanese White rabbit
Conditions: Oryctolagus cuniculus; rabbit platelet rich plasma; aggregation induced by 20 μM ADP; read-out: concentration at which the compound inhibited 50% of platelet aggregation (IC50)
Procedure: Platelet rich plasma (PRP) was prepared from Japanese White rabbit blood drawn from the carotid artery into a syringe containing 3.8% sodium citrate (1/10) volume, and centrifuged at 400×g for 10 min. Platelet aggregation in PRP was induced by 20 μM ADP and determined by the turbidimetric method using an aggregomater (Hema-Tracer: Niko Bioscience Co., Ltd., Japan).

Row | SMILES | IC50
1 | O=C1CCc2cc(N3CCC(O)CC3)c([N+](=O)[O-])cc2N1 [Compound 1, 6-(4-Hydroxypiperidino)-7-nitro-3,4-dihydrocarbostyril] | 37 µM
2 | O=C1CCc2cc(N3CCC(O)CC3)c(Br)cc2N1 [Compound 3, 7-Bromo-6-(4-hydroxypiperidino)-3,4-dihydrocarbostyril] | 26 µM
3 | CCC(=O)OC1CCN(c2cc3c(cc2[N+](=O)[O-])NC(=O)CC3)CC1 [Compound 11, 6-(4-Propionyloxypiperidino)-7-nitro-3,4-dihydrocabostyril] | 37 µM
4 | O=C1CCc2cc(N3CCC(O)CC3)c(Cl)cc2N1 [Compound 5, 7-Chloro-6-(4-hydroxypiperidino)-3,4-dihydrocarbostyril] | 26 µM
5 | O=C1CCc2c(ccc(N3CCC(O)CC3)c2Br)N1 [Compound 4, 5-Bromo-6-(4-hydroxypiperidino)-3,4-dihydrocarbostyril] | 140 µM
6 | O=C1CCc2c(ccc(N3CCC(O)CC3)c2[N+](=O)[O-])N1 [Compound 2, 6-(4-Hydroxypiperidino)-5-nitro-3,4-dihydrocarbostyril] | 55 µM
7 | Cc1cc2c(cc1N1CCC(O)CC1)CCC(=O)N2 [Compound 9, 6-(4-Hydroxypiperidino)-7-methyl-3,4-dihydrocarbostyril] | 130 µM
8 | O=C1CCc2cc(N3CCC(O)CC3)c(F)cc2N1 [Compound 10, 7-Fluoro-6-(4-hydroxypiperidino)-3,4-dihydrocarbostyril] | 51 µM
9 | O=C1CCc2c(ccc(N3CCC(O)CC3)c2Cl)N1 [Compound 6, 5-Chloro-6-(4-hydroxypiperidino)-3,4-dihydrocarbostyril] | 290 µM
10 | O=C1CCc2cc(N3CCC(O)CC3)c(C(F)(F)F)cc2N1 [Compound 12, 6-(4-Hydroxypiperidino)-7-trifluoromethyl-3,4-dihydrocarbostyril] | 39 µM
11 | COC(=O)c1cc2c(cc1N1CCC(O)CC1)CCC(=O)N2 [Compound 8, 6-(4-Hydroxypiperidino)-7-methoxycarbonyl-3,4-dihydrocarbostyril] | 42 µM
12 | N#Cc1cc2c(cc1N1CCC(O)CC1)CCC(=O)N2 [Compound 7, 7-Cyano-6-(4-hydroxypiperidino)-3,4-dihydrocarbostyril] | 18 µM
